Source: patent publication US7709488B2, “Imidazopyridine-derivatives as inducible no-synthase inhibitors” (Altana Pharma AG, priority 2003, dated 2010)

How the values were obtained:
[1] = target: human inducible NO-synthase (Homo sapiens, UniProt P35228); assay: Measurement of inducible NO-synthase activity ([3H]arginine conversion, crude cytosolic fraction); format: biochemical; conditions: 0.1 μM arginine, 45 to 60 min at 37° C., pH 7.2; read-out: Inhibition of iNOS activity [measured as −logIC50 (mol/l)] (converted)
Method: Measurement of Inducible NO-Synthase Activity
The assay is performed in 96-well microtiter F-plates (Greiner, Frickenhausen, FRG) in a total volume of 100 μl in the presence of 100 nM calmodulin, 226 μM CaCl2, 477 μM MgCl2, 5 μM flavin-adenine-dinucleotide (FAD), 5 μM flavin mononucleotide (FMN), 0.1 mM NADPH, 7 mM glutathione, 10 μM BH4 and 100 mM HEPES pH 7.2. Arginine concentrations are 0.1 μM for enzyme inhibition experiments. 150000 dpm of [^3H]arginine are added to the assay mixture. Enzyme reaction is started by the addition of 4 μg of a crude cytosolic fraction containing human inducible NO-synthase and the reaction mixture is incubated for 45 to 60 min at 37° C. Enzyme reaction is stopped by adding 10 μl of 2M MES-buffer pH 5.0. 50 μl of the incubation mixture are transferred into a MADP N65 filtration microtiter plate (Millipore, Eschbom, FRG) containing already 50 μl of AG-50W-X8 cation exchange resin (Biorad, München, FRG). The resin in the Na loaded form is pre-equilibrated in water and 70 μl (corresponding to 50 μl dry beads) are pipetted under heavy stirring with a 8 channel pipette into the filtration plate. After pipetting 50 μl of the enzyme reaction mixture onto the filtration plates, the plates are placed on a filtration manifold (Porvair, Shepperton, UK) and the flow through is collected in Pico scintillation plates (Packard, Meriden, Conn.). The resin in the filtration plates is washed with 75 μl of water (1×50 μl and 1×25 μl) which is also collected in the same plate as the sample. The total flow through of 125 μl is mixed with 175 μl of Microscint-40 scintillation cocktail (Packard) and the scintillation plate is sealed with TopSeal P-foil (Packard). Scintillation plates are counted in a scintillation counter.
For the measurement of inducible NO-synthase-inhibiting potencies of compounds increasing concentrations of inhibitors were included into the incubation mixture. IC50-values were calculated from the percent inhibition at given concentrations by nonlinear least square fitting.
The inhibitory values determined for the compounds according to the invention follow from the following table A, in which the compound numbers correspond to the example numbers.

SMILES	IC50 [1] [nM]	melting point [°C]
COc1ccnc(CCc2nc3cc(-c4ccc(S(=O)(=O)N5CCN(C(C)=O)CC5)cc4)cnc3[nH]2)c1 [Compound 9, 6-[4-(4-Acetyl-piperazin-1-yl-sulfonyl)-phenyl]-2-[2-(4-methoxy-pyridin-2-yl)ethyl]-3H-imidazo[4,5-b]pyridine]	29.5	138 to 140
COc1ccnc(CCc2nc3cc(-c4ccc(S(=O)(=O)N(C)C)cc4C)cnc3[nH]2)c1 [Compound 23, 4-{2-[2-(4-Methoxypyridin-2-yl)ethyl]-3H-imidazo[4,5-b]pyridin-6-yl}-N,N-dimethyl-3-methyl-benzenesulfonamide]	67.6	179 to 180
COCCN1CCN(S(=O)(=O)c2ccc(-c3cnc4[nH]c(CCc5cc(OC)ccn5)nc4c3)cc2)CC1 [Compound 8, 6-{4-[4-(2-Methoxy-ethyl)-piperazin-1-yl-sulfonyl]-phenyl}-2-[2-(4-methoxy-pyridin-2-yl)ethyl]-3H-imidazo[4,5-b]pyridine]	42.7	206 to 208
